The values that follow are results of earlier work, collected in paper PMC12671102 (Drug Design, Development and Therapy, 2025).

Data set [1] deals with subjects.
For data set [2] the following is noted: moderate fat meal.
Data set [3] has as its system subjects. To be noted: Phase II study.

Regarding `O=C(c1cc(Br)c(O)c(Br)c1)N1CCOc2ccncc21` [URC102], the “subjects with TEAEs” value in data set [1] is recorded as 41%.

Turning to `CC(C)(Sc1ccncc1-c1ccc(C#N)c2ccccc12)C(=O)O` [verinurad], the “effect of food on absorption” value in data set [2] is “delayed absorption”. In data set [3], the nephrolithiasis result is reported as “no nephrolithiasis” and the “subjects with increases in serum creatinine” value is recorded as 17.1%.
